Legend:
Details in all cases: 72 h
Caco-2 [1] = assay: relative viability EC50 (midpoint between 100% and the lowest measured viability); higher = less toxic
HepG2 [2] = assay: as above
U2OS [3] = assay: as above
Calu-3 [4] = assay: as above
Vero E6 [5] = assay: as above
Caco-2 [6] = assay: drug sensitivity score (DSS) for viability; higher = more toxic; extreme values may be limits of the assay
HepG2 [7] = assay: as above
U2OS [8] = assay: as above
Calu-3 [9] = assay: as above
Vero E6 [10] = assay: as above
Caco-2 [11] = assay: cell viability relative to DMSO; higher = less toxic
HepG2 [12] = assay: as above
U2OS [13] = assay: as above
Calu-3 [14] = assay: as above
Vero E6 [15] = assay: as above

O=C1COc2c(CCNCCN(C(=O)CCNCCc3ccc(Cl)c(Cl)c3)C3CCCCC3)ccc(O)c2N1 [AZ505]
Details | drug sensitivity score | relative viability EC50 [µM]
Caco-2 [1] | – | > 10
Caco-2 [6] | 0 | –
Calu-3 [4] | – | > 10
Calu-3 [9] | 0 | –
HepG2 [2] | – | > 10
HepG2 [7] | 0 | –
U2OS [3] | – | > 10
U2OS [8] | 0 | –
Vero E6 [5] | – | > 10
Vero E6 [10] | 0 | –

cell viability [%]
Details | Caco-2 [11] | Calu-3 [14] | HepG2 [12] | U2OS [13] | Vero E6 [15]
1 nM | 104 | 88.2 | 95.9 | 102 | 107
10 nM | 98.4 | 89.6 | 98.6 | 101 | 99.4
100 nM | 95.8 | 108 | 118 | 99.2 | 104
1000 nM | 97.8 | 102 | 97.2 | 103 | 99.7
10000 nM | 97.9 | 105 | 89.4 | 91.2 | 109
